Test: Distribution of the drug in human skin (Franz' cells)
Type: in vitro ADME
Conditions: 16 hours after application on a human skin (Franz' cells)

Skin distribution of the drug: accumulate in the Stratum corneum
Structure (SMILES): CCC(=O)O[C@]1(C(=O)CCl)[C@@H](C)C[C@H]2[C@@H]3CCC4=CC(=O)C=C[C@]4(C)[C@@]3(F)[C@@H](O)C[C@@]21C [Clobetasol-17-propionate]
